In PubChem BioAssay (NCI):
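A five-concentration, 48-hour dose response in 96-well plates underlies each endpoint, interpolated linearly between surrounding concentrations. GI50 is the concentration that inhibits growth by half. The concentration for full growth arrest is given as TGI.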

Experiments:
Experiment in all cases: NCI tumour cell line growth inhibition, 48 h
[1] = system: U251 CNS
[2] = system: HCT-116 colon
[3] = system: MALME-3M melanoma
[4] = system: KM12 colon
[5] = system: SF-539 CNS
[6] = system: UACC-62 melanoma
[7] = system: NCI-H460 lung
[8] = system: MDA-MB-435
[9] = system: HL-60(TB) leukemia
[10] = system: MDA-N
[11] = system: SN12C renal
[12] = system: OVCAR-3 ovarian
[13] = system: DU-145 prostate
[14] = system: PC-3 prostate
[15] = system: A498 renal
[16] = system: COLO 205 colon
[17] = system: MOLT-4 leukemia
[18] = system: SF-295 CNS
[19] = system: T-47D breast
[20] = system: SK-OV-3 ovarian
[21] = system: RPMI-8226 leukemia
[22] = system: OVCAR-8 ovarian
[23] = system: TK-10 renal
[24] = system: SNB-75 CNS
[25] = system: HCC-2998 colon
[26] = system: SR leukemia
[27] = system: A549 NSCLC
[28] = system: EKVX NSCLC
[29] = system: K-562 leukemia
[30] = system: CAKI-1 renal
[31] = system: NCI/ADR-RES ovarian
[32] = system: UACC-257 melanoma
[33] = system: NCI-H226 lung
[34] = system: HOP-92 NSCLC
[35] = system: HS 578T breast
[36] = system: SF-268 CNS
[37] = system: NCI-H23 lung
[38] = system: HOP-62 NSCLC
[39] = system: OVCAR-5 ovarian
[40] = system: CCRF-CEM leukemia
[41] = system: ACHN renal
[42] = system: SK-MEL-28 melanoma
[43] = system: LOX IMVI melanoma
[44] = system: NCI-H522 lung
[45] = system: SW-620 colon
[46] = system: UO-31 renal
[47] = system: MCF7 breast
[48] = system: SK-MEL-5 melanoma
[49] = system: HCT-15 colon
[50] = system: MDA-MB-231 breast
[51] = system: OVCAR-4 ovarian
[52] = system: 786-0 renal
[53] = system: BT-549 breast
[54] = system: M14 melanoma
[55] = system: SK-MEL-2 melanoma
[56] = system: HT29 colon
[57] = system: IGROV1 ovarian
[58] = system: RXF 393 renal
[59] = system: SNB-19 CNS

O=c1c2cc(-c3ccccc3)sc2nc2n1N=C(c1ccccc1)CS2
TGI [1]: 48.4 µM
TGI [2]: > 100 µM
TGI [3]: > 100 µM
TGI [4]: > 100 µM
TGI [5]: 89.1 µM
TGI [6]: 31.7 µM
TGI [7]: > 100 µM
TGI [8]: > 100 µM
TGI [9]: > 100 µM
TGI [10]: > 100 µM
TGI [11]: > 100 µM
TGI [12]: 49.1 µM
TGI [13]: > 100 µM
TGI [14]: > 100 µM
TGI [15]: 71.9 µM
TGI [16]: > 100 µM
TGI [17]: > 100 µM
TGI [18]: 44.2 µM
TGI [19]: > 100 µM
TGI [20]: 26.3 µM
TGI [21]: > 100 µM
TGI [22]: > 100 µM
TGI [23]: > 100 µM
TGI [24]: 89.1 µM
TGI [25]: > 100 µM
TGI [26]: > 100 µM
TGI [27]: > 100 µM
TGI [28]: > 100 µM
TGI [29]: > 100 µM
TGI [30]: 34.3 µM
TGI [31]: 57.5 µM
TGI [32]: 91.5 µM
TGI [33]: > 100 µM
TGI [34]: 34.6 µM
TGI [35]: 49.4 µM
TGI [36]: > 100 µM
TGI [37]: > 100 µM
TGI [38]: 23 µM
TGI [39]: > 100 µM
TGI [40]: > 100 µM
TGI [41]: 32.5 µM
TGI [42]: > 100 µM
TGI [43]: > 100 µM
TGI [44]: > 100 µM
TGI [45]: > 100 µM
TGI [46]: > 100 µM
TGI [47]: 96.2 µM
TGI [48]: 79.3 µM
TGI [49]: > 100 µM
TGI [50]: > 100 µM
TGI [51]: 61.4 µM
TGI [52]: 38 µM
TGI [53]: 46.7 µM

CC(=O)NCCc1c2c(c3nccc4c3c1Nc1ccccc1-4)OCS2
GI50 [1]: 1.72 µM
TGI [1]: 15.7 µM
GI50 [2]: 2.22 µM
GI50 [3]: 7.28 µM
TGI [3]: 24.7 µM
GI50 [4]: 2.39 µM
TGI [4]: 10.8 µM
GI50 [54]: 1 µM
TGI [54]: 4.57 µM
GI50 [5]: 6.63 µM
TGI [5]: 25.1 µM
GI50 [6]: 5.5 µM
TGI [6]: 19.3 µM
GI50 [7]: 0.498 µM
TGI [7]: 9.98 µM
GI50 [8]: 3.88 µM
TGI [8]: 18.9 µM
GI50 [9]: 2.97 µM
TGI [9]: 14.3 µM
GI50 [10]: 1.45 µM
TGI [10]: 15.5 µM
GI50 [11]: 0.741 µM
TGI [11]: 4.79 µM
GI50 [12]: 1.48 µM
TGI [12]: 5.67 µM
GI50 [13]: 1.06 µM
TGI [13]: 2.48 µM
GI50 [14]: 2.95 µM
TGI [14]: 9.33 µM
GI50 [15]: 0.698 µM
TGI [15]: 19.1 µM
GI50 [16]: 2.38 µM
TGI [16]: 15.6 µM
GI50 [17]: 2.38 µM
TGI [17]: > 100 µM
GI50 [55]: 3 µM
TGI [55]: 13.9 µM
GI50 [18]: 1.87 µM
TGI [18]: 15.1 µM
GI50 [19]: 2.39 µM
TGI [19]: 12.8 µM
GI50 [20]: 1.52 µM
TGI [20]: 18.8 µM
GI50 [21]: 0.895 µM
GI50 [22]: 2.09 µM
TGI [22]: > 33.1 µM
GI50 [23]: 5.56 µM
TGI [23]: 18.9 µM
GI50 [24]: 15.3 µM
TGI [24]: 70.4 µM
GI50 [25]: 45.8 µM
TGI [25]: > 100 µM
GI50 [26]: 0.0354 µM
TGI [26]: > 100 µM
GI50 [27]: 1.29 µM
TGI [27]: 11.3 µM
GI50 [28]: 2.05 µM
TGI [28]: 16.1 µM
GI50 [29]: 2.93 µM
TGI [29]: 56.2 µM
GI50 [30]: 0.249 µM
TGI [30]: 8.59 µM
GI50 [31]: 4.83 µM
TGI [31]: > 38.2 µM
GI50 [32]: 13.8 µM
TGI [32]: 27 µM
GI50 [33]: 11.6 µM
TGI [33]: 26.5 µM
GI50 [34]: 2.02 µM
TGI [34]: 21 µM
GI50 [35]: 8.19 µM
TGI [35]: 37 µM
GI50 [36]: 1.56 µM
TGI [36]: 11.4 µM
GI50 [56]: 0.968 µM
TGI [56]: 4.77 µM
GI50 [37]: 1.52 µM
TGI [37]: 12.3 µM
GI50 [57]: 0.976 µM
TGI [57]: 5.61 µM
GI50 [38]: 3.6 µM
TGI [38]: 34.1 µM
GI50 [39]: 5.21 µM
TGI [39]: 21.3 µM
GI50 [40]: 1.28 µM
GI50 [41]: 0.199 µM
TGI [41]: 3.27 µM
GI50 [42]: 3.45 µM
TGI [42]: 15.7 µM
GI50 [58]: 3.02 µM
TGI [58]: 13.5 µM
GI50 [59]: 3.17 µM
TGI [59]: 18.8 µM
GI50 [43]: 1.26 µM
TGI [43]: 3.85 µM
GI50 [44]: 0.936 µM
TGI [44]: 3.11 µM
GI50 [45]: 0.226 µM
TGI [45]: 8.15 µM
GI50 [46]: 1.05 µM
TGI [46]: 6.37 µM
GI50 [47]: 0.801 µM
TGI [47]: 8.47 µM
GI50 [48]: 2.99 µM
TGI [48]: 14.5 µM
GI50 [49]: 1.26 µM
TGI [49]: 8.77 µM
GI50 [50]: 0.594 µM
TGI [50]: 6.61 µM
GI50 [51]: 1.92 µM
TGI [51]: 6.02 µM
GI50 [52]: 3.66 µM
TGI [52]: 28.9 µM
GI50 [53]: 6.13 µM
TGI [53]: 19.7 µM
